We go through 4 molecules from US7973064B2, “Method and composition for potentiating an opiate analgesic” (The Board of Trustees of the University of Illinois, priority 2001, dated 2011).

The test system of data set [1] is mice rendered tolerant and dependent on morphine. Briefly: Morphine tolerance in mice. The data set is classed as in vivo, mouse. As to conditions: FIGS. 6-8. An excerpt: (§1) FIGS. 6-8 illustrate the ability of an endothelin antagonist to […] opiate analgesic tolerance in mice and rats rendered tolerant and dependent on morphine. The test method used to generate the data set forth in FIGS. 6-8 is disclosed in H. N. Bhargava et al., J. Pharmacol. Exp. Ther., 252(3), pp. 901-907 (1990). The method disclosed therein was modified slightly for mice because the smaller mice could not survive the morphine dose administered to the rats.

Data set [2] deals with streptozotocin-induced diabetic rat. Conditions: cited from earlier work; for increase in tactile allodynia thresholds: systemic administration.
Data set [3] has as its system Cr1:CD-1(ICR)BR mice and CXBK mice. Conditions: ET-1 intraperitoneally, through μ1 sensitive pathway; cited from earlier work.
Data set [4] relates to mice. In words: Tail flick analgesia in mice. The format is in vivo, mouse. As to conditions: morphine 2, 4, and 8 mg/kg s.c. The protocol: (§2) Tests also were performed on mice. The mice were housed and fed similar to the rats as described above taking into consideration the size differential between rats and mice. The mice were divided into groups identical to the rats, but administered different amounts of vehicle, opiate analgesic, and endothelin antagonist, as disclosed hereafter.
(§3) Measurement of analgesic effect: The analgesic response to morphine was determined by the tail flick method. The tail flick latencies to thermal stimulation were determined before and 30, 60, 90, 120, 180, 210, 240, 270, 300, and 360 minutes after the morphine injection. […] A cutoff time of 10 seconds was used to prevent damage to the tail. The basal latency was subtracted from that induced by morphine. […] The differences in analgesic response to different doses of morphine were compared by using student's t test. A value of P<0.05 was considered significant.

The test system of data set [5] is Male Sprague-Dawley rats. Briefly: Catalepsy bar test in rats. The data set is classed as in vivo, rat. Conditions: for catalepsy (bar test), drug alone: 45 minutes after morphine or vehicle, morphine 8 mg/kg s.c. or BQ123 10 μg i.c.v. The protocol:
(§4) Male Sprague-Dawley rats weighing 225 to 250 g (Sasco King Animal Co., Madison, Wis.) were housed in a room with controlled temperature (23±1° C.), humidity (50±10%), and light (6:00 a.m. to 6:00 p.m.) for at least four days prior to testing. Food and water were available to the rats continuously.
(§5) The rats were divided into four groups (FIG. 1): group 1 received vehicle (saline 5 μl, i.c.v. over 5 minutes) and vehicle (saline 100 μl/kg s.c.); group 2 received vehicle (saline 100 μl/kg, s.c.) and BQ123 (10 μg, i.c.v. in a volume of 5 μl over 5 minutes); group 3 received morphine (8 mg/kg, s.c. in a volume of 100 μl/kg) and vehicle (saline 100 μl/kg, s.c.); and group 4 received morphine (8 mg/kg, s.c. in a volume of 100 μl/kg) and BQ123 (10 μg, i.c.v. in a volume of 5 μl over 5 minutes). Vehicle or BQ123 treatment was performed 30 minutes prior to morphine administration.
Measurement of catalepsy: Rats were tested for catalepsy by the bar test. An aluminum bar 5 mm in diameter was placed 4 cm above the floor, and the animal's forepaw was gently placed on the bar. The time required for the animal to place at least one paw on the floor was measured with a maximum term of observation of 180 seconds. Behavioral evaluation of catalepsy was performed 45 minutes after the administration of morphine or its vehicle. Statistical tests were performed as described above.

Another data set can be described thus: Body weight in rats. Conditions: before any drug and seven hours after morphine, BQ123 10 μg i.c.v., morphine 8 mg/kg s.c. The format is in vivo, rat. The protocol: as §5
Effect on body weight: Body weight was measured in all groups of rats of FIG. 1. […] Body weight was measured before administering any drug and at the end of the experiment, i.e., seven hours after the administration of morphine.

In data set [6] the test system is Male Sprague-Dawley rats. In words: Colonic temperature in rats. The data set is classed as in vivo, rat. Conditions: for effect on body temperature, drug alone: morphine 8 mg/kg s.c. or BQ123 10 μg i.c.v. The protocol:
as §4, §5
Measurement of colonic temperature: The change in temperature in response to morphine was determined. The colonic temperature of each rat was recorded before and various times after morphine injection for a period of 360 minutes using a tele-thermometer. […] Rats used to measure tail flick latencies also were used to determine the colonic temperature. The differences in temperature response between various groups were compared by using student's t test. A value of P<0.05 was considered significant.

Data set [7] relates to Male Sprague-Dawley rats. In words: Tail flick analgesia in rats. As to conditions: for effect on tail flick latency (analgesia), drug alone: morphine 8 mg/kg s.c. or BQ123 10 μg i.c.v. The data set is classed as in vivo, rat. The protocol:
as §4, §5, §3
On the technique in general: In hot-plate and tail-flick tests a longer latency is read as antinociception.

The subject of another data set is rat sciatic nerve. As to conditions: ET-1 200 to 800 μM applied to sciatic nerve, pretreatment; cited from earlier work.
The test system of data set [8] is morphine tolerant dependent rats. Briefly: Tolerance to analgesic effect in morphine tolerant dependent rats. Conditions: 6 morphine pellets in 7-day period, BQ123 10 μg i.c.v. twice a day for 7 days. The format is in vivo, rat. As for the experimental part: as §1
(§6) The effect of BQ123 (3 μg, i.c.v.) on naloxone-precipitated morphine withdrawal also was determined in mice. […] Tests also were performed to determine tolerance to analgesic effect in morphine tolerant dependent rats (6 morphine pellets in 7-day period).

For another data set, the system named is morphine tolerant mice. Briefly: Naloxone-precipitated morphine withdrawal in mice. The data set is classed as in vivo, mouse. As to conditions: 1 morphine 75 mg pellet for 3 days, naloxone 1 mg/kg i.p., BQ123 3 μg i.c.v. As for the experimental part: as §6
Data set [9] deals with mice. Conditions: BQ123 and morphine 2, 4, or 8 mg/kg. The protocol:
as §2

Data set [10] in a line: Body weight in mice given BQ123 and morphine. The format is in vivo, mouse. As to conditions: BQ123 and morphine 2, 4, or 8 mg/kg. The protocol:
Tests also were performed on mice.

Setting [11] is: BQ123 10 μg i.c.v. 30 minutes prior to morphine 8 mg/kg s.c.

Structures are written as SMILES. Entries after “also recorded” stand apart in the source; their conditions may differ. Square brackets hold non-standard residues; d marks the D form. Peptide text beside a SMILES is read from it.

Regarding `Cc1noc(NS(=O)(=O)c2cccc3c(N(C)C)cccc23)c1C` [BMS182874], the “morphine tolerance after treatment with endothelin antagonist” value in [1] was “reduced morphine tolerance”.

For the molecule `CN1CC[C@]23c4c5ccc(O)c4O[C@H]2[C@@H](O)C=C[C@H]3[C@H]1C5` [morphine], the “increase in tactile allodynia thresholds” value in data set [2] was 90%. Further, the “effect on ET-1 induced nociception” value in data set [3] is recorded as “could be blocked by morphine”. In the data set with mice [4], the “duration of increase in tail flick latency, morphine alone” value stood at 1.5 h and the “effect on mouse tail flick latency, morphine alone” value is on record as “significant increase in mouse tail flick latency”. For the same molecule, the “catalepsy (bar test), drug alone” value with Male Sprague-Dawley rats [5] is reported as “significantly increased catalepsy”. In addition, the “change in body weight” value in “Body weight in rats” is reported as “neither morphine nor BQ123 produced any acute effect on body weight”. The “duration of hyperthermia, morphine alone” value with Male Sprague-Dawley rats [6] (morphine 8 mg/kg s.c.) is listed as “about four”. Besides, the “effect on body temperature, drug alone” value with Male Sprague-Dawley rats [6] is “produced significant hyperthermia”. Besides, the “time after administration until which tail flick latencies were significantly increased, morphine alone” value in the data set on Male Sprague-Dawley rats [7] (morphine 8 mg/kg s.c.) was “three”. Besides, in the data set with Male Sprague-Dawley rats [7], the “effect on tail flick latency (analgesia), drug alone” value was “produced significant analgesia”. Also, the tail flick latency result in the data set on Male Sprague-Dawley rats [7] (morphine 8 mg/kg s.c., control about 2 seconds) is recorded as “more than 10 seconds”. In the data set with rat sciatic nerve, the “effect on ET-1 induced hindpaw flinching” value is “completely blocked”.

Consider `CCCCN(CCCC)C(=O)CN1C[C@H](c2ccc3c(c2)OCO3)[C@@H](C(=O)O)[C@@H]1c1ccc(OC)cc1` [ABT-627], for which the “antinociceptive effect following chronic administration” value in data set [2] (in drinking water for 7 days) was “maintained”. The “increase in tactile allodynia thresholds” value in data set [2] is on record as 40 to 50%.

With `CC(C)C[C@@H]1NC(=O)[C@@H](C(C)C)NC(=O)[C@@H]2CCCN2C(=O)[C@@H](CC(=O)O)NC(=O)[C@@H](Cc2c[nH]c3ccccc23)NC1=O` [BQ123, cyclo(-D-Trp-D-Asp-Pro-D-Val-Leu-)] (cyclo(L[dW][dD]P[dV])), the “development of tolerance to morphine analgesic effect” value in data set [8] is reported as “did not become tolerant to morphine”. In the data set on mice [4] (BQ123 3 μg i.c.v.), the “duration of morphine analgesia with BQ123” value is recorded as “more than 4 hours” and the “effect of BQ123 on morphine analgesia” value is on record as “significantly potentiated morphine analgesia; also recorded: analgesia was potentiated”. The “catalepsy (bar test), drug alone” value in the data set on Male Sprague-Dawley rats [5] is “did not produce any cataleptic effect”. Also, the “effect of BQ123 pretreatment on morphine-induced catalepsy” value with Male Sprague-Dawley rats [5] (setting [11]) is recorded as “did not produce any change in morphine-induced catalepsy”. Also, the “effect on naloxone-precipitated morphine withdrawal symptoms” value in the data set with morphine tolerant mice was “did not affect hypothermia, loss of body weight, jumping behavior, falls, diarrhea, fecal boli, urination, ptosis, writhing, and rearing behavior during withdrawal; also recorded: no effect on temperature, body weight, urination, diarrhea, jumping behavior, number of falls, ptosis, and grooming”. Besides, the “morphine tolerance after treatment with endothelin antagonist” value in data set [1] is “reduced morphine tolerance”. Also, the “change in body weight” value in “Body weight in rats” is “no change in body weight”. Further, the “effect of BQ123 on morphine-induced hypothermia” value in the data set on mice [9] is “not affected”. In the data set on Male Sprague-Dawley rats [6] (setting [11]), the “duration of morphine hyperthermia in BQ123 pretreated rats” value was “more than six” and the “effect of BQ123 on hyperthermic effect of morphine” value is given as “significantly potentiated”. For the same molecule, in the data set with Male Sprague-Dawley rats [6], the “effect on body temperature, drug alone” value is “did not produce any significant effect on body temperature”. Also, in the data set with Male Sprague-Dawley rats [7] (setting [11]), the “duration of morphine analgesia in BQ123 pretreated rats” value is “more than six” and the “effect of BQ123 on analgesic effect of morphine” value is on record as “significantly potentiated”. For the same molecule, in the data set with Male Sprague-Dawley rats [7], the “effect on tail flick latency (analgesia), drug alone” value is “did not produce any significant effect on tail flick latency”. Also, the “effect on ET-1 induced hindpaw flinching” value in the data set with rat sciatic nerve was “blocked”. Besides, the “effect on body weight” value in [10] is listed as “not affected”.
